Measured values: article PMC12281424, “A Rac-specific competitive inhibitor of guanine nucleotide binding reduces metastasis in triple-negative breast cancer” (Cell Reports Medicine, 2025)

Columns and labels:
PDGFRα(V561D)(h) = PDGFRα(V561D)(h) (Homo sapiens, UniProt P16234, V561D); test: Kinase Profiler; format: biochemical
Protocol: (§1) The kinase profiler was performed by the company Eurofins (Discovery, Panlab and Cerep).

Transporter, GABA = test: Safety screen; format: binding, rat
Protocol: (§2) Blood cell counts, kinase profiler, safety screen, bacterial cytotoxicity, Ames, micronucleus assays were performed by the company Eurofins (France).

TAO1(h) = TAO1(h) (Homo sapiens, UniProt Q7L7X3); test: Kinase Profiler; format: biochemical
Protocol: (§3) Blood cell counts, kinase profiler, safety screen, bacterial cytotoxicity, Ames, micronucleus assays were performed by the company Eurofins (France). The kinase profiler was performed by the company Eurofins (Discovery, Panlab and Cerep).

IKKβ(h) = IKKβ(h) (Homo sapiens, UniProt O14920); test: Kinase Profiler; format: biochemical
Protocol: as §3

SGK(h) = SGK(h) (Homo sapiens, UniProt O00141); test: Kinase Profiler; format: biochemical
Protocol: as §1

GRK2(h) = GRK2(h) (Homo sapiens, UniProt P25098); test: Kinase Profiler; format: biochemical
Chain of GRK2(h) (P25098 whole entry): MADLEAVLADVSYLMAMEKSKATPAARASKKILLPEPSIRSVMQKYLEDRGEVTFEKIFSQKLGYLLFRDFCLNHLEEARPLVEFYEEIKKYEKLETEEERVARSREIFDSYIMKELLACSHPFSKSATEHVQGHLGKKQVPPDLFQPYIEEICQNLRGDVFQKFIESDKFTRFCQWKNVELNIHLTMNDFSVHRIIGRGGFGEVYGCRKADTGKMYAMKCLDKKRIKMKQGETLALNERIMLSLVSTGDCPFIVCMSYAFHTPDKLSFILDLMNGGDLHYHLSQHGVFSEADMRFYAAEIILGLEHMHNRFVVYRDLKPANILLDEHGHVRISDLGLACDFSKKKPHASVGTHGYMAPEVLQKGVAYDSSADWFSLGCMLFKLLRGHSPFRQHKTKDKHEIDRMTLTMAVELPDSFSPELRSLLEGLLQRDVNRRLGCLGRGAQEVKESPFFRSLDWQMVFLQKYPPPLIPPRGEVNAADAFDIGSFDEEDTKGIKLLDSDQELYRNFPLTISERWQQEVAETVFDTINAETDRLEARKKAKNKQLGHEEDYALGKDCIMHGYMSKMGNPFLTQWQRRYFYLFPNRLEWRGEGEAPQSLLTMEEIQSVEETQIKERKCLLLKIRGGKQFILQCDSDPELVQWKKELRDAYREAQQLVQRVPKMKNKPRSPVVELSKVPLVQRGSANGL
Protocol: as §3

Rse(h) = Rse(h) (Homo sapiens, UniProt Q06418); test: Kinase Profiler; format: biochemical
Chain of Rse(h) (Q06418 41-890): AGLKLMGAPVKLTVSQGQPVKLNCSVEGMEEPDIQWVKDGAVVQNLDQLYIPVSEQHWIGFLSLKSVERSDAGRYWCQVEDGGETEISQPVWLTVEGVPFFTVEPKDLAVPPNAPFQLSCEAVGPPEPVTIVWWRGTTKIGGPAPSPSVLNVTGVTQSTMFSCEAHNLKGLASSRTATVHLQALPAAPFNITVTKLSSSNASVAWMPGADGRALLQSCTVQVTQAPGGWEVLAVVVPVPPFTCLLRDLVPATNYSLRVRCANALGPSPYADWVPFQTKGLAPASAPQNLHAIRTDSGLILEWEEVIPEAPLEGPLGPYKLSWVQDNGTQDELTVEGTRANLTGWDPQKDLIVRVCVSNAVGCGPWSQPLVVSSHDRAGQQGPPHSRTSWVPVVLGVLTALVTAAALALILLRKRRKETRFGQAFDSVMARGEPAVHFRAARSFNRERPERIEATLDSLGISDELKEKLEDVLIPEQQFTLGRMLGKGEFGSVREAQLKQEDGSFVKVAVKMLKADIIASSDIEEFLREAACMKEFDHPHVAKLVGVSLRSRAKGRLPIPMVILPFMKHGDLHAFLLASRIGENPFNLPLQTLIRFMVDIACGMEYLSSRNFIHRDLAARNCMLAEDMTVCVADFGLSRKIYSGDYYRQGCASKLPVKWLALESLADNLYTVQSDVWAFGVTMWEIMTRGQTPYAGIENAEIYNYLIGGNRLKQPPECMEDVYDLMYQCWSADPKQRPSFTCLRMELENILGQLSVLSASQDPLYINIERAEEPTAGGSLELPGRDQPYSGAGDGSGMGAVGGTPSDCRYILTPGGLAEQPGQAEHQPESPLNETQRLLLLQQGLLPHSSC
Protocol: as §1

[1] = test system: other breast cancer cell lines and other types of cancer cell lines; test: Focus formation (clonogenic) assay; format: cell-based; conditions: 10 μM
Protocol: Figure 5 A41 decreases growth and invasiveness of TNBC cells in vitro (A) Representative images of RAC-GTP levels (red) in MDA-MB-468 Luc cells in the absence (CTL) and presence of EHT1864, NSC23766, or A41 (1 h at 10 μM) (left). Luciferase (Luc, green) was used to detect the cells. RAC-GTP mean fluorescence intensity was quantified inside the cell area (right) (n = 31–37 cells from 3 independent experiments; ∗p < 0.05, ∗∗∗p < 0.001) (scale bars: 10 μm). […] (C) Quantification of colony number of indicated cancer cell lines in the presence of A41 (10 μM) expressed as the percentage of control in the absence of A41. Results shown are representative of N > 3 independent experiments. (D) Immunoblot analysis and corresponding quantification of AKT and P44/42 expression and phosphorylation (pAKT, p44/42) in MDA-MB-468 Luc cells in the absence (−) and presence of NSC23766 or A41 (1 h at 10^−5 M). Results shown are representative of 3 independent experiments. ∗∗p < 0.01 vs. untreated cells, ^###p < 0.001 vs. NSC23766-treated cells. (E) 3D invasion assay of MDA-MB-468 Luc and cancer-associated fibroblasts (CAFs) and corresponding quantification (scale bars: 200 μm). […]
1000 cells/well from the indicated cancer cell lines were seeded in 6-wells plates and allowed to grow 2 days before treatments. […] The area occupied by the cells was then quantified with ImageJ software. […]

CHK1(h) = CHK1(h) (Homo sapiens, UniProt O14757); test: Kinase Profiler; format: biochemical
Protocol: as §1

Fms(h) = Fms(h) (Homo sapiens, UniProt P07333); test: Kinase Profiler; format: biochemical
Protocol: as §1

PDGFRα(D842V)(h) = PDGFRα(D842V)(h) (Homo sapiens, UniProt P16234, D842V); test: Kinase Profiler; format: biochemical
Chain of PDGFRα(D842V)(h) (P16234 24-1089 D842V): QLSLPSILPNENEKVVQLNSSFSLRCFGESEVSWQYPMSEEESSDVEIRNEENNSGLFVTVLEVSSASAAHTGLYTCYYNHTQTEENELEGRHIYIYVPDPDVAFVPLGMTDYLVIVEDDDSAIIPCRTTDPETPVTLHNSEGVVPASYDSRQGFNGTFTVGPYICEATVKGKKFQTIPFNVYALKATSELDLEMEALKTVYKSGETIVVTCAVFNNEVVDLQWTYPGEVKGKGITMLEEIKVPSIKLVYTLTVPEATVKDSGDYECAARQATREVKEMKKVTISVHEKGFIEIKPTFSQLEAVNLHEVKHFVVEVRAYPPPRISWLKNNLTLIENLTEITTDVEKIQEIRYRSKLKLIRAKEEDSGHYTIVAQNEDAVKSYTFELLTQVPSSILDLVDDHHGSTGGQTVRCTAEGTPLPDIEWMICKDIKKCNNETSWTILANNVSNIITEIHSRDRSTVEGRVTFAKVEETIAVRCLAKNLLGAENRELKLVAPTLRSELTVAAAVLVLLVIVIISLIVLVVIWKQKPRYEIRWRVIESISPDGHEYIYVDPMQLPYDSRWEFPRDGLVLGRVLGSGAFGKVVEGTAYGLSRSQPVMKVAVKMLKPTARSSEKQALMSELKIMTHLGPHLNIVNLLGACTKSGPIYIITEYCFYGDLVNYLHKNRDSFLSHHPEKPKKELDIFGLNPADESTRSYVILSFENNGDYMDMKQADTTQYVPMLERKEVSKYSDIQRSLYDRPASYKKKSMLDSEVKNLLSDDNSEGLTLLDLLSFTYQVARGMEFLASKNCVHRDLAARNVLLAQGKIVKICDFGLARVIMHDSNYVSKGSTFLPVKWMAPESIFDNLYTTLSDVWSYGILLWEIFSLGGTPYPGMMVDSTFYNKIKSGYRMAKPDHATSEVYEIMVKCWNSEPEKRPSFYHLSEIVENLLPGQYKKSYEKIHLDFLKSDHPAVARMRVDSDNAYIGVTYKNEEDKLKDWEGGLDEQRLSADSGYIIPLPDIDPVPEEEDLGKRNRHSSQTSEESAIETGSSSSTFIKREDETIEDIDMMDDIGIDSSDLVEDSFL
Protocol: as §1

CDKL4(h) = CDKL4(h) (Homo sapiens, UniProt Q5MAI5); test: Kinase Profiler; format: biochemical
Protocol: as §1

CaMKIIδ(h) = CaMKIIδ(h) (Homo sapiens, UniProt Q13557); test: Kinase Profiler; format: biochemical
Protocol: as §1

Cannabinoid CB2 = Cannabinoid CB2 (Homo sapiens, UniProt P34972); test: Safety screen; format: binding
Protocol: as §2

[2] = molecular target: Serotonin (5-Hydroxytryptamine) 5-HT1A (Homo sapiens, UniProt P08908); test: Safety screen; format: binding
Protocol: as §3

CSK(h) = CSK(h) (Homo sapiens, UniProt P41240); test: Kinase Profiler; format: biochemical
Chain of CSK(h) (P41240 whole entry): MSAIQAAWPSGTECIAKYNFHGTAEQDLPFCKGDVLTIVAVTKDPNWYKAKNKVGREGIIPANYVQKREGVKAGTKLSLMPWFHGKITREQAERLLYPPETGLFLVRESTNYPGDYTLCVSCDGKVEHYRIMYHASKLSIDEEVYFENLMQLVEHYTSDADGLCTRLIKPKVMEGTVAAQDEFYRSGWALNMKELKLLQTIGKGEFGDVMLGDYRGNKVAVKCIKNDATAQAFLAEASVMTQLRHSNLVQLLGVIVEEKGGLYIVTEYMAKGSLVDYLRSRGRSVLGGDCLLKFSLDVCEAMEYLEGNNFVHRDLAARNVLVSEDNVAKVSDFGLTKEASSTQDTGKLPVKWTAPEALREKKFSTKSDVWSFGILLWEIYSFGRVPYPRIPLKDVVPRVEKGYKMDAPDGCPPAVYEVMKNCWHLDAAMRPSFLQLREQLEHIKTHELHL
Protocol: as §1

White blood cell formula = format: in vivo, mouse
From the text: Data S6. Formule white blood cell (% of leukocytes) in control and A41-treated mice (25
Control (n=5) A41 (n=5) p value

TSSK1(h) = TSSK1(h) (Homo sapiens, UniProt Q9BXA7); test: Kinase Profiler; format: biochemical
Chain of TSSK1(h) (Q9BXA7 whole entry): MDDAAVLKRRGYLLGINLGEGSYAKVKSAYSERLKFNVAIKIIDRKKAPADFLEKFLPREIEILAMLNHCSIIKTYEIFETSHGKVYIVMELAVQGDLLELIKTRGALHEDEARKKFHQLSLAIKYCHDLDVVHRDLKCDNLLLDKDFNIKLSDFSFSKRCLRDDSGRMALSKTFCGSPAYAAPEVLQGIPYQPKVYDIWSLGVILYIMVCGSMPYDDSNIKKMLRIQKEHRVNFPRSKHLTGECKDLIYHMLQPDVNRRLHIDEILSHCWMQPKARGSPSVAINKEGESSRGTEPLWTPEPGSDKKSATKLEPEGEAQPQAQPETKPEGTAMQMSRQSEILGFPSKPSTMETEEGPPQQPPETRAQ
Protocol: as §1

CK1γ1(h) = CK1γ1(h) (Homo sapiens, UniProt Q9HCP0); test: Kinase Profiler; format: biochemical
Protocol: as §3

CDK18/cyclinY(h) = CDK18/cyclinY(h) (Homo sapiens, UniProt Q07002); test: Kinase Profiler; format: biochemical
Chain of CDK18/cyclinY(h) (Q07002 whole entry): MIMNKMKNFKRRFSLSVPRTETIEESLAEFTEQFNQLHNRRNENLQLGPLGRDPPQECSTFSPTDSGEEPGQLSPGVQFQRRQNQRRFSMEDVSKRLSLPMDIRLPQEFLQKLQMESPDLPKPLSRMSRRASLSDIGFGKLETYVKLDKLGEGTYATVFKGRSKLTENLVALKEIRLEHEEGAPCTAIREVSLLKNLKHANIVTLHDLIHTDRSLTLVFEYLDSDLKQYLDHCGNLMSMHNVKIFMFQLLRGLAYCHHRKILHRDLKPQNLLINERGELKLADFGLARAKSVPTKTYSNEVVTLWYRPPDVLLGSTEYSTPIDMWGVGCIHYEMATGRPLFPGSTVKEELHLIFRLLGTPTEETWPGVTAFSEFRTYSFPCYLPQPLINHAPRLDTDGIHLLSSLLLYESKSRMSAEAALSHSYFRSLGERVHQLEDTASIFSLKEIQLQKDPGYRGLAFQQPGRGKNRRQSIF
Chain of CDK18/cyclinY(h) (Q8ND76 whole entry partner): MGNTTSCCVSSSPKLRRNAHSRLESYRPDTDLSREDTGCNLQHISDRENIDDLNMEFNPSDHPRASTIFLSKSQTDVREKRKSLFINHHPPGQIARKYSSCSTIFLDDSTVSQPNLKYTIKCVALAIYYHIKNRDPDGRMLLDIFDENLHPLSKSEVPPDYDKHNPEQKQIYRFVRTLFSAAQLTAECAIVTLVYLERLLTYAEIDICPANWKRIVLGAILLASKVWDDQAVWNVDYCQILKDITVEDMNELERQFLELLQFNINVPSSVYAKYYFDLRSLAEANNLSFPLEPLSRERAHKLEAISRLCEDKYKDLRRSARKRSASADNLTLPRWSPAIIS
Protocol: as §1

CK2α1(h) = CK2α1(h) (Homo sapiens, UniProt P68400); test: Kinase Profiler; format: biochemical
Protocol: as §1

Mer(h) = Mer(h) (Homo sapiens, UniProt Q12866); test: Kinase Profiler; format: biochemical
Protocol: as §1

Src(1-530)(h) = Src(1-530)(h) (Homo sapiens, UniProt P12931); test: Kinase Profiler; format: biochemical
Protocol: as §1

ErbB4(h) = ErbB4(h) (Homo sapiens, UniProt Q15303); test: Kinase Profiler; format: biochemical
Protocol: as §1

BrSK2(h) = BrSK2(h) (Homo sapiens, UniProt Q8IWQ3); test: Kinase Profiler; format: biochemical
Protocol: as §3

ATM(h) = ATM(h) (Homo sapiens, UniProt Q13315); test: Kinase Profiler; format: biochemical
Protocol: as §1

Plk3(h) = Plk3(h) (Homo sapiens, UniProt Q9H4B4); test: Kinase Profiler; format: biochemical
Protocol: as §3

MST3(h) = MST3(h) (Homo sapiens, UniProt Q9Y6E0); test: Kinase Profiler; format: biochemical
Chain of MST3(h) (Q9Y6E0 whole entry): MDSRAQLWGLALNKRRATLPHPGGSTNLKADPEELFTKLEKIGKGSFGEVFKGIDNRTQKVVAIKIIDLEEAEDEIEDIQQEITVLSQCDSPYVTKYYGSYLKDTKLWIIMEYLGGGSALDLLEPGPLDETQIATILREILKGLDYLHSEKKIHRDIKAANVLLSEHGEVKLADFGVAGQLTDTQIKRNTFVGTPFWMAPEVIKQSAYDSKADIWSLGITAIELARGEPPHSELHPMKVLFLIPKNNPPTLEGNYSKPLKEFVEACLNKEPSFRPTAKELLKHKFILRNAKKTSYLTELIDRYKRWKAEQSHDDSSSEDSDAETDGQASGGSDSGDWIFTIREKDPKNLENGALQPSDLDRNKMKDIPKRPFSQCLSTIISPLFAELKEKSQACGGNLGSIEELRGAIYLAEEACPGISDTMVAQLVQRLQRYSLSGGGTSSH
Protocol: as §1

Chain of PDGFRα(V561D)(h) (P16234 24-1089 V561D): as the sequence (P16234 24-1089 D842V) above, with V538D, V819D counted along it

## COc1ccc(OC)c(NS(=O)(=O)c2ccc(NC(=O)CCSc3ccc(C)cc3)cc2)c1 [Compound A41]
PDGFRα(V561D)(h)
  Activity(%): 119%
Transporter, GABA
  % inh.: -4%
TAO1(h)
  Activity(%): 118%
IKKβ(h)
  Activity(%): 110%
SGK(h)
  Activity(%): 116%
GRK2(h)
  Activity(%): 96%
Rse(h)
  Activity(%): 102%
[1]
  colony formation: Inhibitory effect
CHK1(h)
  Activity(%): 120%
Fms(h)
  Activity(%): 112%
PDGFRα(D842V)(h)
  Activity(%): 112%
CDKL4(h)
  Activity(%): 91%
CaMKIIδ(h)
  Activity(%): 92%
Cannabinoid CB2
  % inh.: 36%
[2]
  % inh.: 6%
CSK(h)
  Activity(%): 119%
White blood cell formula; 25 mg/kg/d, n=5
  B cells, Mean (SD): 11.62 (1.58) % of leukocytes
  Macrophages, Mean (SD): 2.46 (2.34) % of leukocytes
  Monocytes, Mean (SD): 0.86 (0.57) % of leukocytes
  NK cells, Mean (SD): 0.40 (0.22) % of leukocytes
  Neutrophiles, Mean (SD): 4.19 (6.24) % of leukocytes
  T cells, Mean (SD): 52.20 (2.11) % of leukocytes
White blood cell formula; chronic A41 treatment, immunocompetent mice
  white cell blood counts: not accompanied by changes in white cell blood counts
TSSK1(h)
  Activity(%): 103%
CK1γ1(h)
  Activity(%): 106%
CDK18/cyclinY(h)
  Activity(%): 101%
CK2α1(h)
  Activity(%): 80%
Mer(h)
  Activity(%): 90%
Src(1-530)(h)
  Activity(%): 105%
ErbB4(h)
  Activity(%): 108%
BrSK2(h)
  Activity(%): 118%
ATM(h)
  Activity(%): 114%
Plk3(h)
  Activity(%): 115%
MST3(h)
  Activity(%): 95%
